Laboratory results taken from publication PMC9395488, “First-in-human study of IM156, a novel potent biguanide oxidative phosphorylation (OXPHOS) inhibitor, in patients with advanced solid tumors” (Investigational New Drugs, 2022).

Tested on: patients with advanced solid tumors
Assay: First-in-human phase 1 dose-escalation study: safety, DLTs, adverse events
Format: in vivo
Excerpt: This multicenter first-in-human dose-escalation phase 1 study (clinicaltrials.gov identifier: NCT03272256) was designed to determine the MTD or RP2D and to evaluate the safety and tolerability of IM156. Secondary endpoints included PK characteristics, efficacy assessment (objective response rate [ORR], disease control rate [DCR], duration of response [DoR] and progression-free survival [PFS]). Furthermore, exploratory objectives included identification and profiling of IM156 metabolites, evaluations of exploratory PD markers of IM156, and evaluations of any potential relationship between putative biomarkers and safety/efficacy parameters of IM156. The study was conducted in accordance with Good Clinical Practice, the International Council for Harmonisation, and guidelines governing clinical study conduct and the ethical principles originating from the Declaration of Helsinki. The study was approved by each Institutional Review Board and patients provided written informed consent. Patients were enrolled at three sites in South Korea.
The initial dose and schedule of IM156 was chosen based on animal toxicology studies. […] IM156 was administered in the fasted state, with no food for at least 2 h before and 1 h after dosing.
Three DLT-evaluable patients were enrolled at each dose level. If there were no DLTs or other prohibitive adverse events (AEs), the Safety Committee was allowed to recommend escalation to the next highest dose level. If 1 DLT occurred in the first 3 DLT-evaluable patients, enrollment in that cohort was expanded to an additional 3 DLT-evaluable patients; if ≥ 2 DLTs were reported in a cohort, that dose was considered above the MTD.
Safety was assessed through vital signs, weight, laboratory assessments, physical examinations, electrocardiogram, and reporting of AEs as graded by the National Cancer Institute’s Common Terminology Criteria for Adverse Events v4.03 (NCI-CTCAE).
DLTs were defined as the following AEs if they were attributed as related to IM156: asymptomatic grade 4 neutropenia lasting for ≥ 5 days; febrile neutropenia, regardless of grade; grade 4 thrombocytopenia or grade 3 thrombocytopenia with bleeding; any grade ≥ 3 non-hematologic AE (except grade 3 hypertension and grade 3 nausea, vomiting or diarrhea for which proper measures for prevention and treatment were not implemented, and alopecia); blood lactate levels > 5 mmol; grade ≥ 2 AE prohibiting dosing of IM156 for ≥ 21 continuous days except for alterations in serum calcium or phosphorus levels. The safety analysis includes all patients who received at least one dose of study drug.
The safety population was defined as all patients who received at least one dose of IM156. The PK population was not defined in the protocol but included all patients with sufficient PK data to perform adequate PK modeling. The efficacy population included all patients who underwent at least one tumor imaging assessment while receiving IM156. Safety was assessed using descriptive statistics (e.g., DLTs, AEs, laboratory tests, physical examination, 12-lead ECG). The incidence and number of events were reported for the DLTs observed in Cycle 1 per dose group. […] Adverse events and TRAEs were standardized with the System Organ Class and the Preferred Term using the Medical Dictionary for Regulatory Activities v23.0. In addition, TEAEs, serious adverse events (SAEs), TEAE severity, and TEAEs leading to withdrawal were presented by dose group. Efficacy data were to be presented by Waterfall and Swim Lane plots. Time to event endpoints (e.g., DoR, PFS) were determined using Kaplan–Meier estimations with the median value for each endpoint summarized.

[1] = DL1 100 mg orally every other day (n=3)

NC(=Nc1ccc(OC(F)(F)F)cc1)N=C(N)N1CCCC1 [IM156]
SAE Abdominal distension: Causality (100 mg QOD): Unlikely
SAE Abdominal distension: Dose Interrupted (100 mg QOD): Yes
SAE Abdominal distension: Grade (100 mg QOD): 2
SAE Abdominal distension: Outcome (100 mg QOD): Recovered without sequelae
SAE Gastric Obstruction: Causality (100 mg QOD): Unlikely
SAE Gastric Obstruction: Dose Interrupted (100 mg QOD): Yes
SAE Gastric Obstruction: Grade (100 mg QOD): 3
SAE Gastric Obstruction: Outcome (100 mg QOD): Recovered without sequelae
SAE Ileus: Causality (200 mg QOD): Unlikely
SAE Ileus: Dose Interrupted (200 mg QOD): No
SAE Ileus: Grade (200 mg QOD): 3
SAE Ileus: Outcome (200 mg QOD): Recovered without sequelae
SAE Cystitis: Causality (800 mg QOD): Unlikely
SAE Cystitis: Dose Interrupted (800 mg QOD): Yes
SAE Cystitis: Grade (800 mg QOD): 2
SAE Cystitis: Outcome (800 mg QOD): Recovered without sequelae
SAE Worsen abdominal pain: Causality (800 mg QOD): Unlikely
SAE Worsen abdominal pain: Dose Interrupted (800 mg QOD): Yes
SAE Worsen abdominal pain: Grade (800 mg QOD): 3
SAE Worsen abdominal pain: Outcome (800 mg QOD): Resolved to Grade 1
SAE Akathisia: Causality (1,200 mg QD): Unlikely
SAE Akathisia: Dose Interrupted (1,200 mg QD): No
SAE Akathisia: Grade (1,200 mg QD): 2
SAE Akathisia: Outcome (1,200 mg QD): Recovered without sequelae
SAE Lethargy: Causality (1,200 mg QD): Unlikely
SAE Lethargy: Dose Interrupted (1,200 mg QD): Yes
SAE Lethargy: Grade (1,200 mg QD): 2
SAE Lethargy: Outcome (1,200 mg QD): Recovered without sequelae
SAE Perforated Appendicitis: Causality (1,200 mg QD): Unlikely
SAE Perforated Appendicitis: Dose Interrupted (1,200 mg QD): No
SAE Perforated Appendicitis: Grade (1,200 mg QD): 3
SAE Perforated Appendicitis: Outcome (1,200 mg QD): Recovered without sequelae
tolerability (1,200 mg QD, due to nausea): not well tolerated
SAE Nausea: Causality (1,200 mg QOD): Possible
SAE Nausea: Dose Interrupted (1,200 mg QOD): Yes
SAE Nausea: Grade (1,200 mg QOD): 3
trend of blood lactate levels with dose or exposure (100 to 1,200 mg): no trend
dose-limiting toxicities (DLTs), all dose levels (100 to 1,200 mg QOD or QD, cycle 1): no DLTs
TEAE Abdominal distension, grade 2 (DL1 100 mg QOD (n=3)): 1
TEAE Ascites, grade 1 (DL1 100 mg QOD (n=3)): 1
TEAE Blood creatinine increased, grade 1 (DL1 100 mg QOD (n=3)): 1
TEAE Decreased appetite, grade 1 (DL1 100 mg QOD (n=3)): 1
TEAE Diarrhoea, grade 2 (DL1 100 mg QOD (n=3)): 1
TEAE Gastrointestinal pain, grade 2 (DL1 100 mg QOD (n=3)): 1
TEAE Hypoalbuminaemia, grade 2 (DL1 100 mg QOD (n=3)): 1
TEAE Large intestinal obstruction, grade 2 (DL1 100 mg QOD (n=3)): 1
TEAE Nausea, grade 1 (DL1 100 mg QOD (n=3)): 1
TEAE Obstruction gastric, grade 3 (DL1 100 mg QOD (n=3)): 1
TEAE Proctalgia, grade 2 (DL1 100 mg QOD (n=3)): 1
TEAE Pyrexia, grade 1 (DL1 100 mg QOD (n=3)): 1
TEAE Vomiting, grade 1 (DL1 100 mg QOD (n=3)): 1
TRAE Abdominal Pain, > G3 (patients) (DL1 100 mg QOD oral, N = 3): 0
TRAE Abdominal Pain, All grades (patients) (DL1 100 mg QOD oral, N = 3): 0
TRAE Blood Lactic Acid increased, > G3 (patients) (DL1 100 mg QOD oral, N = 3): 0
TRAE Blood Lactic Acid increased, All grades (patients) (DL1 100 mg QOD oral, N = 3): 0
TRAE Constipation, > G3 (patients) (DL1 100 mg QOD oral, N = 3): 0
TRAE Constipation, All grades (patients) (DL1 100 mg QOD oral, N = 3): 0
TRAE Decreased appetite, > G3 (patients) (DL1 100 mg QOD oral, N = 3): 0
TRAE Decreased appetite, All grades (patients) (DL1 100 mg QOD oral, N = 3): 0
TRAE Diarrhoea, > G3 (patients) (DL1 100 mg QOD oral, N = 3): 0
TRAE Diarrhoea, All grades (patients) (DL1 100 mg QOD oral, N = 3): 0
TRAE Fatigue, > G3 (patients) (DL1 100 mg QOD oral, N = 3): 0
TRAE Fatigue, All grades (patients) (DL1 100 mg QOD oral, N = 3): 0
TRAE Insomnia, > G3 (patients) (DL1 100 mg QOD oral, N = 3): 0
TRAE Insomnia, All grades (patients) (DL1 100 mg QOD oral, N = 3): 0
TRAE Nausea, > G3 (patients) (DL1 100 mg QOD oral, N = 3): 0
TRAE Nausea, All grades (patients) (DL1 100 mg QOD oral, N = 3): 0
TRAE Vomiting, > G3 (patients) (DL1 100 mg QOD oral, N = 3): 0
TRAE Vomiting, All grades (patients) (DL1 100 mg QOD oral, N = 3): 0
TEAE Adrenal insufficiency grade 1 [1]: 0
TEAE Adrenal insufficiency grade 2 [1]: 0
TEAE Adrenal insufficiency grade 3 [1]: 0
TEAE Adrenal insufficiency grade 4 [1]: 0
TEAE Anaemia grade 1 [1]: 0
TEAE Anaemia grade 2 [1]: 1
TEAE Anaemia grade 3 [1]: 0
TEAE Anaemia grade 4 [1]: 0
TEAE Appendicitis perforated grade 1 [1]: 0
TEAE Appendicitis perforated grade 2 [1]: 0
TEAE Appendicitis perforated grade 3 [1]: 0
TEAE Appendicitis perforated grade 4 [1]: 0
TEAE Back pain grade 1 [1]: 0
TEAE Back pain grade 2 [1]: 0
TEAE Back pain grade 3 [1]: 0
TEAE Back pain grade 4 [1]: 0
TEAE Cystitis grade 1 [1]: 0
TEAE Cystitis grade 2 [1]: 0
TEAE Cystitis grade 3 [1]: 0
TEAE Cystitis grade 4 [1]: 0
TEAE Dry skin grade 1 [1]: 0
TEAE Dry skin grade 2 [1]: 0
TEAE Dry skin grade 3 [1]: 0
TEAE Dry skin grade 4 [1]: 0
TEAE Flank pain grade 1 [1]: 0
TEAE Flank pain grade 2 [1]: 0
TEAE Flank pain grade 3 [1]: 0
TEAE Flank pain grade 4 [1]: 0
TEAE Hypertension grade 1 [1]: 0
TEAE Hypertension grade 2 [1]: 0
TEAE Hypertension grade 3 [1]: 0
TEAE Hypertension grade 4 [1]: 0
TEAE Hypotension grade 1 [1]: 0
TEAE Hypotension grade 2 [1]: 0
TEAE Hypotension grade 3 [1]: 0
TEAE Hypotension grade 4 [1]: 0
TEAE Insomnia grade 1 [1]: 0
TEAE Insomnia grade 2 [1]: 0
TEAE Insomnia grade 3 [1]: 0
TEAE Insomnia grade 4 [1]: 0
TEAE Pain in extremity grade 1 [1]: 0
TEAE Pain in extremity grade 2 [1]: 0
TEAE Pain in extremity grade 3 [1]: 0
TEAE Pain in extremity grade 4 [1]: 0
TEAE Pruritus grade 1 [1]: 0
TEAE Pruritus grade 2 [1]: 0
TEAE Pruritus grade 3 [1]: 0
TEAE Pruritus grade 4 [1]: 0
